Experimental data published in PubChem BioAssay AID1982 (Sanford-Burnham Center for Chemical Genomics, 2009).
Activity calls are given as the source filed them. The rule behind the calls is not given here.

How the values were obtained:
Assay in all cases: kinase panel binding selectivity, selectivity assay, biochemical, KINOMEscan (AID 1982)
[1] = target: ALK tyrosine kinase receptor (Homo sapiens) (UniProt Q9UM73); settings: KINOMEscan 353-kinase binding panel, qPCR, at 10 µM, stronger effect = lower value
[2] = test system: ARK5; settings: KINOMEscan 353-kinase binding panel, qPCR, at 10 µM, stronger effect = lower value
[3] = test system: EPHB1; settings: KINOMEscan 353-kinase binding panel, qPCR, at 10 µM, stronger effect = lower value
[4] = test system: CDKL2; settings: KINOMEscan 353-kinase binding panel, qPCR, at 10 µM, stronger effect = lower value
[5] = test system: TLK2; settings: KINOMEscan 353-kinase binding panel, qPCR, at 10 µM, stronger effect = lower value
[6] = target: Serine/threonine-protein kinase SIK2 (Homo sapiens) (UniProt Q9H0K1); settings: KINOMEscan 353-kinase binding panel, qPCR; SNF1LK2; at 10 µM; stronger effect = lower value
[7] = target: Tyrosine-protein kinase Lyn (Homo sapiens) (UniProt P07948); settings: KINOMEscan 353-kinase binding panel, qPCR, at 10 µM, stronger effect = lower value
[8] = test system: PIK3CB; settings: KINOMEscan 353-kinase binding panel, qPCR, at 10 µM, stronger effect = lower value
[9] = target: Glycogen synthase kinase-3 alpha (Homo sapiens) (UniProt P49840); settings: KINOMEscan 353-kinase binding panel, qPCR; GSK3A; at 10 µM; stronger effect = lower value
[10] = test system: ULK2; settings: KINOMEscan 353-kinase binding panel, qPCR, at 10 µM, stronger effect = lower value
[11] = test system: MEK2; settings: KINOMEscan 353-kinase binding panel, qPCR, at 10 µM, stronger effect = lower value
[12] = test system: EPHA7; settings: KINOMEscan 353-kinase binding panel, qPCR, at 10 µM, stronger effect = lower value
[13] = target: Serine/threonine-protein kinase PLK4 (Homo sapiens) (UniProt O00444); settings: KINOMEscan 353-kinase binding panel, qPCR, at 10 µM, stronger effect = lower value
[14] = target: MAP kinase-activated protein kinase 5 (Homo sapiens) (UniProt Q8IW41); settings: KINOMEscan 353-kinase binding panel, qPCR; MAPKAPK5; at 10 µM; stronger effect = lower value
[15] = test system: RIOK3; settings: KINOMEscan 353-kinase binding panel, qPCR, at 10 µM, stronger effect = lower value
[16] = target: Mitogen-activated protein kinase kinase kinase 5 (Homo sapiens) (UniProt Q99683); settings: KINOMEscan 353-kinase binding panel, qPCR; MAP3K5; at 10 µM; stronger effect = lower value
[17] = target: Tyrosine-protein kinase Blk (Homo sapiens) (UniProt P51451); settings: KINOMEscan 353-kinase binding panel, qPCR, at 10 µM, stronger effect = lower value
[18] = test system: PHKG1; settings: KINOMEscan 353-kinase binding panel, qPCR, at 10 µM, stronger effect = lower value
[19] = target: Casein kinase II subunit alpha (Homo sapiens) (UniProt P68400); settings: KINOMEscan 353-kinase binding panel, qPCR; CSNK2A1; at 10 µM; stronger effect = lower value
[20] = target: Calcium/calmodulin-dependent protein kinase kinase 2 (Homo sapiens) (UniProt Q96RR4); settings: KINOMEscan 353-kinase binding panel, qPCR; CAMKK2; at 10 µM; stronger effect = lower value
[21] = test system: CSNK2A2; settings: KINOMEscan 353-kinase binding panel, qPCR, at 10 µM, stronger effect = lower value
[22] = test system: TIE1; settings: KINOMEscan 353-kinase binding panel, qPCR, at 10 µM, stronger effect = lower value
[23] = target: Calcium/calmodulin-dependent protein kinase type II subunit alpha (Homo sapiens) (UniProt Q9UQM7); settings: KINOMEscan 353-kinase binding panel, qPCR; CAMK2A; at 10 µM; stronger effect = lower value
[24] = test system: MST3; settings: KINOMEscan 353-kinase binding panel, qPCR, at 10 µM, stronger effect = lower value
[25] = test system: BMX; settings: KINOMEscan 353-kinase binding panel, qPCR, at 10 µM, stronger effect = lower value
[26] = target: Vascular endothelial growth factor receptor 2 (Homo sapiens) (UniProt P35968); settings: KINOMEscan 353-kinase binding panel, qPCR; VEGFR2; at 10 µM; stronger effect = lower value
[27] = target: Phosphatidylinositol 5-phosphate 4-kinase type-2 beta (Homo sapiens) (UniProt P78356); settings: KINOMEscan 353-kinase binding panel, qPCR; PIP5K2B; at 10 µM; stronger effect = lower value
[28] = test system: PIK3CG; settings: KINOMEscan 353-kinase binding panel, qPCR, at 10 µM, stronger effect = lower value
[29] = test system: ERK5; settings: KINOMEscan 353-kinase binding panel, qPCR, at 10 µM, stronger effect = lower value
[30] = target: Serine/threonine-protein kinase BRSK1 (Homo sapiens) (UniProt Q8TDC3); settings: KINOMEscan 353-kinase binding panel, qPCR, at 10 µM, stronger effect = lower value
[31] = test system: MLK1; settings: KINOMEscan 353-kinase binding panel, qPCR, at 10 µM, stronger effect = lower value
[32] = test system: RPS6KA1(Kin.Dom.1); settings: KINOMEscan 353-kinase binding panel, qPCR, at 10 µM, stronger effect = lower value
[33] = target: Casein kinase I isoform gamma-3 (Homo sapiens) (UniProt Q9Y6M4); settings: KINOMEscan 353-kinase binding panel, qPCR; CSNK1G3; at 10 µM; stronger effect = lower value
[34] = target: cAMP-dependent protein kinase catalytic subunit PRKX (Homo sapiens) (UniProt P51817); settings: KINOMEscan 353-kinase binding panel, qPCR, at 10 µM, stronger effect = lower value
[35] = target: Serine/threonine-protein kinase MRCK alpha (Homo sapiens) (UniProt Q5VT25); settings: KINOMEscan 353-kinase binding panel, qPCR; MRCKA; at 10 µM; stronger effect = lower value
[36] = test system: PCTK1; settings: KINOMEscan 353-kinase binding panel, qPCR, at 10 µM, stronger effect = lower value

Sequence of Calcium/calmodulin-dependent protein kinase kinase 2 (Homo sapiens) (Q96RR4 whole entry, looked up): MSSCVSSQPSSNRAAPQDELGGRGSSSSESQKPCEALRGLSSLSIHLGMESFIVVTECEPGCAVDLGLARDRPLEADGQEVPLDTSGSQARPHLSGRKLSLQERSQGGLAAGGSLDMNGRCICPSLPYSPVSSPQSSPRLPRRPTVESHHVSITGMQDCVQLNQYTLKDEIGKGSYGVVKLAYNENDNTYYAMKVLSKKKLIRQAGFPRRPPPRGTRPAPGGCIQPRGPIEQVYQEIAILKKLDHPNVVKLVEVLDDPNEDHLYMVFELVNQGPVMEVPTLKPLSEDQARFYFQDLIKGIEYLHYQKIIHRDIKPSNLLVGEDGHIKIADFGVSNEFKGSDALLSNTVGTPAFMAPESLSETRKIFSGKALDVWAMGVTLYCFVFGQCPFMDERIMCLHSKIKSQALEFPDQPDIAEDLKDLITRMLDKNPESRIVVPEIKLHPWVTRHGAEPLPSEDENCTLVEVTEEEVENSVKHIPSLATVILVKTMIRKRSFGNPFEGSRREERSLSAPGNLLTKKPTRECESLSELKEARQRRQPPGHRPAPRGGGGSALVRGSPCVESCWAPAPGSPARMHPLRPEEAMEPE
Sequence of Serine/threonine-protein kinase BRSK1 (Homo sapiens) (Q8TDC3 whole entry, looked up): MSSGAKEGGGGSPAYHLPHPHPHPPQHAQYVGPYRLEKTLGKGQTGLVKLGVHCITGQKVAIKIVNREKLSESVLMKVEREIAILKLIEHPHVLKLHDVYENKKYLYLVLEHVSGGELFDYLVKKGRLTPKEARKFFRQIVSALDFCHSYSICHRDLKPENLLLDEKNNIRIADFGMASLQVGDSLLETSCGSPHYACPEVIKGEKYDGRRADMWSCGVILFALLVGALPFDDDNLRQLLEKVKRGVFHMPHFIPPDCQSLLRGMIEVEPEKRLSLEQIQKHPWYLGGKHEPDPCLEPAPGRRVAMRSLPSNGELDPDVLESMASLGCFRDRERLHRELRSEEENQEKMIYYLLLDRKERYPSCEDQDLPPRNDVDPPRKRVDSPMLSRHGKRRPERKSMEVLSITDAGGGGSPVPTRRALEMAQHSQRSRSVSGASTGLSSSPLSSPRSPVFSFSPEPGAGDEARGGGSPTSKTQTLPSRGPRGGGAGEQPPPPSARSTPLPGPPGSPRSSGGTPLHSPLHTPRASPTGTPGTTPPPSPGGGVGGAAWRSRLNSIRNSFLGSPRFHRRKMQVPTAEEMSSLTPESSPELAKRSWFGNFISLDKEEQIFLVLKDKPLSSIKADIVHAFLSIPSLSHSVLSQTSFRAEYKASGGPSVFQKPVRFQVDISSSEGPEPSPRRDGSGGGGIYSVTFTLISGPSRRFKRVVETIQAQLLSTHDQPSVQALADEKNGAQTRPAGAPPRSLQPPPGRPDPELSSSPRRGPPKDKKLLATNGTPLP
Sequence of MAP kinase-activated protein kinase 5 (Homo sapiens) (Q8IW41 whole entry, looked up): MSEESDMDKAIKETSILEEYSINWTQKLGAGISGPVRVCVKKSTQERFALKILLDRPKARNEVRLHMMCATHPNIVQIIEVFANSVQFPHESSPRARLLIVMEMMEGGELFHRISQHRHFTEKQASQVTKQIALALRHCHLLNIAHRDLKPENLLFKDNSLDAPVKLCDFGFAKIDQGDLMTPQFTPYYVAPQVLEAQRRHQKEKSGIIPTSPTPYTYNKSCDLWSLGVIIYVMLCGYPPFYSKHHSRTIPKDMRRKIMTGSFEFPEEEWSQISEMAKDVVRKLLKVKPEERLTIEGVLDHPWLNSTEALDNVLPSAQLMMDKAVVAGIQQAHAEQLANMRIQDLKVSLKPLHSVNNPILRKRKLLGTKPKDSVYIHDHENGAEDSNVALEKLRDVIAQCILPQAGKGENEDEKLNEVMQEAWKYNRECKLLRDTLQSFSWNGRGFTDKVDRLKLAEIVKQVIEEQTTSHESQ
Sequence of Vascular endothelial growth factor receptor 2 (Homo sapiens) (P35968 whole entry, looked up): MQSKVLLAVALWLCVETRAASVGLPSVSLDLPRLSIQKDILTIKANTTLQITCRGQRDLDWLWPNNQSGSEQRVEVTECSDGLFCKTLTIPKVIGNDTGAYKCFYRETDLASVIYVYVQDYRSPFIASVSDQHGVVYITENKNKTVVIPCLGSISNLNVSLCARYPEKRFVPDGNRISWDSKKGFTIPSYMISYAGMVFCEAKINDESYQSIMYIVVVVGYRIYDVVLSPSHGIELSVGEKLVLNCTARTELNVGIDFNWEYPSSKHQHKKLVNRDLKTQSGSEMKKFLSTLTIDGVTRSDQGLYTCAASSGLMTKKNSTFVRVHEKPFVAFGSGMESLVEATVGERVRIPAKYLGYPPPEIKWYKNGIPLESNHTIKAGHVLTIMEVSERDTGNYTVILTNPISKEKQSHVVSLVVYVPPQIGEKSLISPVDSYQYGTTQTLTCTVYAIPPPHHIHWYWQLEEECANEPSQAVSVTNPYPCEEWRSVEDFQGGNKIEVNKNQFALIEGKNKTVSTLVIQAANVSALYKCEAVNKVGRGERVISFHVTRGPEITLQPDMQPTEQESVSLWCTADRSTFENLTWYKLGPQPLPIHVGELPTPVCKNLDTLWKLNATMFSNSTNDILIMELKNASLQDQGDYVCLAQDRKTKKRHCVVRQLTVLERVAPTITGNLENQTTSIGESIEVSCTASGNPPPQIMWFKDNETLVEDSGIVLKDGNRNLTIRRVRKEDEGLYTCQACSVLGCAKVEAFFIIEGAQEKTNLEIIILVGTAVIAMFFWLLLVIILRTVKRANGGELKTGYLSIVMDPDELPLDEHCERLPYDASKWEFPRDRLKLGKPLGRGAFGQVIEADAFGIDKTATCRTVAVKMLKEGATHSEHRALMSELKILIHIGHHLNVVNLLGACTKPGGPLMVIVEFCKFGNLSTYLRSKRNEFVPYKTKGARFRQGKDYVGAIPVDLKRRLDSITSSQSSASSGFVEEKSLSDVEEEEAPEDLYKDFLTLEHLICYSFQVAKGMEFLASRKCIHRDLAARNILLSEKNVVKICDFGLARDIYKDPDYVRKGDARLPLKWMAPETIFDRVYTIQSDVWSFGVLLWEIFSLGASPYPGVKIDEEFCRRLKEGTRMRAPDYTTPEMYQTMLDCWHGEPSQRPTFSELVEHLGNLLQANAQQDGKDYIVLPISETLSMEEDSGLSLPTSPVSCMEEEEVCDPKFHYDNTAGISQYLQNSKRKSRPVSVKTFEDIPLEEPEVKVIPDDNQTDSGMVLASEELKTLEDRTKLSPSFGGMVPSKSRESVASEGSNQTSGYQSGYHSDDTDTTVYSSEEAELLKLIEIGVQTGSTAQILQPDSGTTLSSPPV
Sequence of Tyrosine-protein kinase Blk (Homo sapiens) (P51451 whole entry, looked up): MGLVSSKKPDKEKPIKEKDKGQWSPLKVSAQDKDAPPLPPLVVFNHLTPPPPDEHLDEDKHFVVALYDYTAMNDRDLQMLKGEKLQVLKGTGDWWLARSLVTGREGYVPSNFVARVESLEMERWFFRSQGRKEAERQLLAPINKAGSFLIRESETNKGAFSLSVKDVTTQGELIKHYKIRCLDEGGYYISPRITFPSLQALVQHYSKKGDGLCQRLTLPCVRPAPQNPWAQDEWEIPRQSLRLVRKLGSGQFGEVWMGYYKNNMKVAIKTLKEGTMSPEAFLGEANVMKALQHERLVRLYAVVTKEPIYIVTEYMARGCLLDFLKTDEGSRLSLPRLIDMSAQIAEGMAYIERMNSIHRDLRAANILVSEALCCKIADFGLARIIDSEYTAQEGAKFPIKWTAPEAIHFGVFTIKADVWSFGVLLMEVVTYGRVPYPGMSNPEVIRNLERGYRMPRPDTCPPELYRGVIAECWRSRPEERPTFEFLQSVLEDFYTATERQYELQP
Sequence of Casein kinase I isoform gamma-3 (Homo sapiens) (Q9Y6M4 whole entry, looked up, canonical isoform): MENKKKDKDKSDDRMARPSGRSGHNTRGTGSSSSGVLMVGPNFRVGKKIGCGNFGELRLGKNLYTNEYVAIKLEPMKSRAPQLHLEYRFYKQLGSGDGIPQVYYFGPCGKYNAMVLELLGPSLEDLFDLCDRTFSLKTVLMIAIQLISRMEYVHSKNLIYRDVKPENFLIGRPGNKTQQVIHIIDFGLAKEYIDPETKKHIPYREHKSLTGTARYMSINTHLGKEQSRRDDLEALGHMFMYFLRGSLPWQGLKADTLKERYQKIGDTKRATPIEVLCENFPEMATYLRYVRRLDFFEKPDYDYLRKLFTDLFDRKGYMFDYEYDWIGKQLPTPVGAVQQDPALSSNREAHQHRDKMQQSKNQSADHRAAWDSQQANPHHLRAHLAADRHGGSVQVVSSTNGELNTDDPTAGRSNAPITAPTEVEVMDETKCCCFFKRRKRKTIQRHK
Sequence of Calcium/calmodulin-dependent protein kinase type II subunit alpha (Homo sapiens) (Q9UQM7 whole entry, looked up): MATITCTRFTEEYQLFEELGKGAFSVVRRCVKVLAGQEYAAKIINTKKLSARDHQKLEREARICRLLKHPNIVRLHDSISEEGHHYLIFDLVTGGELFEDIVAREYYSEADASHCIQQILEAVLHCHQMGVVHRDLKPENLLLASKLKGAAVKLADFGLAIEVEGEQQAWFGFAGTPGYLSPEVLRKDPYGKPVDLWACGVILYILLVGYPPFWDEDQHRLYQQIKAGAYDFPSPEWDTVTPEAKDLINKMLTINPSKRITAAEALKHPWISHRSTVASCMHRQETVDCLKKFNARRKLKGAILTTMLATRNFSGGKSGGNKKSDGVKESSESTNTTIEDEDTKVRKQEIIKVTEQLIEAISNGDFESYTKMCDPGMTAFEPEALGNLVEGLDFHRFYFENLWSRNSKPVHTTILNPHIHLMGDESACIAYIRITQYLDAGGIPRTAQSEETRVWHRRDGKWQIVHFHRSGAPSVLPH
Sequence of cAMP-dependent protein kinase catalytic subunit PRKX (Homo sapiens) (P51817 whole entry, looked up): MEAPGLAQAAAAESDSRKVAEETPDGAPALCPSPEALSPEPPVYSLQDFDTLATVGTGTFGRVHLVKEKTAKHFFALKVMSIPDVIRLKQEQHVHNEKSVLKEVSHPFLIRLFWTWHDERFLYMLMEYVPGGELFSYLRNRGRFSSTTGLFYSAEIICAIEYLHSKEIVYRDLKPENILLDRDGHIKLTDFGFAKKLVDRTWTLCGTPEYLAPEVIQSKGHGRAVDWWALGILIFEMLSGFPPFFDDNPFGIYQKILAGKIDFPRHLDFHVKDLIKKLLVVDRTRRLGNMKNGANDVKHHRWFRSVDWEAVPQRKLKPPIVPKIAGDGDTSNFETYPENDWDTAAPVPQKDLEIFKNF

percent of control binding [1]: 100% (inactive)
percent of control binding [2]: 100% (inactive)
percent of control binding [3]: 95% (inactive)
percent of control binding [4]: 96% (inactive)
percent of control binding [5]: 100% (inactive)
percent of control binding [6]: 100% (inactive)
percent of control binding [7]: 88% (inactive)
percent of control binding [8]: 79% (inactive)
percent of control binding [9]: 99% (inactive)
percent of control binding [10]: 84% (inactive)
percent of control binding [11]: 87% (inactive)
percent of control binding [12]: 87% (inactive)
percent of control binding [13]: 91% (inactive)
percent of control binding [14]: 100% (inactive)
percent of control binding [15]: 100% (inactive)
percent of control binding [16]: 100% (inactive)
percent of control binding [17]: 99% (inactive)
percent of control binding [18]: 100% (inactive)
percent of control binding [19]: 81% (inactive)
percent of control binding [20]: 100% (inactive)
percent of control binding [21]: 98% (inactive)
percent of control binding [22]: 100% (inactive)
percent of control binding [23]: 85% (inactive)
percent of control binding [24]: 100% (inactive)
percent of control binding [25]: 84% (inactive)
percent of control binding [26]: 88% (inactive)
percent of control binding [27]: 99% (inactive)
percent of control binding [28]: 86% (inactive)
percent of control binding [29]: 100% (inactive)
percent of control binding [30]: 100% (inactive)
percent of control binding [31]: 100% (inactive)
percent of control binding [32]: 59% (inactive)
percent of control binding [33]: 100% (inactive)
percent of control binding [34]: 100% (inactive)
percent of control binding [35]: 90% (inactive)
percent of control binding [36]: 84% (inactive)
SMILES: Cc1cc2nc(NCCCO)n(CC(=O)c3cc(C(C)(C)C)c(O)c(C(C)(C)C)c3)c2cc1C
